± gives the standard deviation of the averaged measurements.
Test system: HT1080
Assay: relative viability vs DMSO control (72 h) (fraction); higher = more viable cells
Method in brief: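 Sarcoma cell lines were seeded in 384-well plates at densities chosen for 80–90% confluence, then 24 h later given 2.5 µl of serially diluted compound drawn from source plates spanning 10 mM to 0.0002 mM. They were held 72 h at 37 °C, 5% CO2, with 0.1% DMSO vehicle and a 5 µM positive control included. Relative viability was read with ATPLite as percent growth and averaged over up to triplicate wells. Rescaling placed full at 1 and none at 0.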

Compound | relative viability (0.00017 µM) | relative viability (0.00051 µM) | relative viability (0.00152 µM) | relative viability (0.00457 µM) | relative viability (0.01372 µM) | relative viability (0.04115 µM) | relative viability (0.1235 µM) | relative viability (0.3704 µM) | relative viability (1.111 µM) | relative viability (3.333 µM) | relative viability (10 µM)
C=CC(=O)Nc1cccc(Oc2nc(Nc3ccc(N4CCN(C)CC4)cc3)nc3ccsc23)c1 [Olmutinib] | 1.05 ± 0.021 | 1.08 ± 0.014 | 1.07 ± 0.017 | 1.07 ± 0.018 | 1.05 ± 0.049 | 1.0797 ± 0.00078 | 1.07 ± 0.011 | 1.06 ± 0.019 | 1.04 ± 0.015 | 1.03 ± 0.037 | 0.492 ± 0.13
COc1cc2c(Oc3ccc4[nH]c(C)cc4c3F)ncnc2cc1OCCCN1CCCC1 [Cediranib] | 1.08 ± 0.022 | 1.08 ± 0.015 | 1.06 ± 0.011 | 1.095 ± 0.0091 | 1.1 ± 0.011 | 1.07 ± 0.031 | 1.08 ± 0.016 | 1.1 ± 0.015 | 1.1 ± 0.027 | 1.08 ± 0.035 | 1.06 ± 0.024
Cc1cnc(Nc2ccc(OCCN3CCCC3)cc2)nc1Nc1cccc(S(=O)(=O)NC(C)(C)C)c1 [Fedratinib] | 1.11 ± 0.027 | 1.03 ± 0.056 | 1.08 ± 0.0082 | 1.06 ± 0.032 | 1.07 ± 0.044 | 1.05 ± 0.044 | 1.04 ± 0.009 | 1.03 ± 0.022 | 0.813 ± 0.015 | 0.391 ± 0.014 | 0.0298 ± 0.0037
CCCS(=O)(=O)Nc1ccc(F)c(C(=O)c2c[nH]c3ncc(-c4ccc(Cl)cc4)cc23)c1F [Vemurafenib] | 1.1 ± 0.032 | 1.07 ± 0.049 | 1.09 ± 0.05 | 1.08 ± 0.031 | 1.08 ± 0.044 | 1.07 ± 0.045 | 1.07 ± 0.043 | 1.08 ± 0.04 | 1.13 ± 0.031 | 1.04 ± 0.023 | 0.663 ± 0.25
Cn1cnc2c(F)c(Nc3ccc(Br)cc3F)c(C(=O)NOCCO)cc21 [Binimetinib] | 1.1 ± 0.019 | 1.09 ± 0.031 | 1.09 ± 0.021 | 1.03 ± 0.026 | 1.031 ± 0.0075 | 0.8738 ± 0.0029 | 0.752 ± 0.017 | 0.626 ± 0.015 | 0.577 ± 0.026 | 0.518 ± 0.034 | 0.451 ± 0.032
COc1c(OCCCN2CCOCC2)ccc2c1N=C(NC(=O)c1cnc(N)nc1)N1CCN=C21 [Copanlisib] | 1.15 ± 0.059 | 1.14 ± 0.034 | 1.12 ± 0.04 | 1.111 ± 0.0021 | 1.1 ± 0.017 | 1.12 ± 0.016 | 1.08 ± 0.034 | 0.964 ± 0.026 | 0.65405 ± 0.00049 | 0.342 ± 0.022 | 0.224 ± 0.025
COc1cc2nccc(Oc3ccc(NC(=O)Nc4cc(C)on4)c(Cl)c3)c2cc1OC [Tivozanib] | 1.04 ± 0.027 | 1.06 ± 0.021 | 1.06 ± 0.032 | 1.07 ± 0.026 | 1.046 ± 0.01 | 1.06 ± 0.02 | 1.05 ± 0.019 | 1.07 ± 0.02 | 1.1 ± 0.04 | 1.12 ± 0.015 | 0.967 ± 0.021
CC[C@H](Nc1ncnc2[nH]cnc12)c1nc2cccc(F)c2c(=O)n1-c1ccccc1 [Idelalisib] | 1.1 ± 0.032 | 1.1 ± 0.025 | 1.07 ± 0.017 | 1.12 ± 0.039 | 1.0913 ± 0.00051 | 1.12 ± 0.021 | 1.09 ± 0.038 | 1.12 ± 0.051 | 1.07 ± 0.027 | 1.08 ± 0.014 | 1.08 ± 0.04
Cc1cc(C)c(/C=C2\C(=O)Nc3ccccc32)[nH]1 [Semaxanib] | 0.923 ± 0.051 | 0.964 ± 0.038 | 0.94 ± 0.023 | 0.945 ± 0.018 | 0.926 ± 0.022 | 0.946 ± 0.049 | 0.893 ± 0.059 | 0.921 ± 0.018 | 0.928 ± 0.023 | 0.939 ± 0.034 | 0.888 ± 0.065
Cc1ccc(F)c(NC(=O)Nc2ccc(-c3cccc4[nH]nc(N)c34)cc2)c1 [Linifanib] | 1.08 ± 0.022 | 1.08 ± 0.026 | 1.07 ± 0.017 | 1.033 ± 0.0064 | 1.06 ± 0.02 | 1.07 ± 0.037 | 1.048 ± 0.0077 | 1.08 ± 0.0094 | 1.08 ± 0.031 | 1.08 ± 0.03 | 1.05 ± 0.015
COCc1c(-c2cc3cc(C)cc(OC)c3s2)c2c(N)ncnn2c1CN1CCNC(=O)C1 [Rogaratinib] | 1.08 ± 0.023 | 1.09 ± 0.041 | 1.07 ± 0.028 | 1.038 ± 0.0047 | 1.05 ± 0.013 | 1.06 ± 0.017 | 1.05 ± 0.017 | 1.07 ± 0.04 | 1.084 ± 0.0066 | 1.09 ± 0.024 | 1.06 ± 0.032
N#CC[C@H](C1CCCC1)n1cc(-c2ncnc3[nH]ccc23)cn1 [Ruxolitinib] | 1.04 ± 0.037 | 1.034 ± 0.0099 | 1.07 ± 0.012 | 1.05 ± 0.068 | 1.06 ± 0.049 | 1.03 ± 0.017 | 1.05 ± 0.027 | 1.04 ± 0.04 | 1.04 ± 0.021 | 1.04 ± 0.035 | 1.02 ± 0.087
CCN1CCN(Cc2ccc(Nc3ncc(F)c(-c4cc(F)c5nc(C)n(C(C)C)c5c4)n3)nc2)CC1 [Abemaciclib] | 1.05 ± 0.0085 | 1.05 ± 0.034 | 1.06 ± 0.018 | 1.08 ± 0.034 | 1.06 ± 0.011 | 1.07 ± 0.018 | 1.13 ± 0.053 | 1.18 ± 0.045 | 1.15 ± 0.055 | 1.07 ± 0.045 | 0.926 ± 0.063
CNC(=O)c1cc(Oc2ccc(NC(=O)Nc3ccc(Cl)c(C(F)(F)F)c3)c(F)c2)ccn1 [Regorafenib] | 1.1 ± 0.055 | 1.128 ± 0.0073 | 1.09 ± 0.012 | 1.09 ± 0.012 | 1.12 ± 0.028 | 1.11 ± 0.056 | 1.1 ± 0.02 | 1.08 ± 0.021 | 1.05 ± 0.014 | 0.952 ± 0.028 | 0.542 ± 0.062

From the supplement of paper PMC10883282
